Reference: US10517889B2, “Modulators of SMAD7 expression” (Ionis Pharmaceuticals, Inc., priority 2017, dated 2019)
Several values for one entry are separate records, joined by “and”; a condition that tells them apart may be missing. Identical values can stand only once. Strand notation (5' to 3'): a small letter for the sugar, then the base; units joined by * are phosphorothioate-linked, units joined directly phosphodiester-linked; [ ] holds rarer units or linkages, { } end groups; capitals alone tell only the bases. k = constrained ethyl (cEt); [5mC] = 5-methylcytosine; d = 2'-deoxy (DNA)

What was measured:
[1] = Organ weights after subcutaneous administration in CD-1 mice (Example 6); format: in vivo; details: end of study, 50 mg/kg subcutaneously twice a week for 7 weeks
Method: (§1) Groups of 8-9 week old male CD-1 mice were injected subcutaneously twice a week for 7 weeks with 50 mg/kg of Ionis oligonucleotides (100 mg/kg/week dose). Each group contained 4 mice. One group of male CD-1 mice was injected subcutaneously twice a week for 7 weeks with PBS. Plasma was collected for analysis on day 28.
Ionis SMAD7 oligonucleotides that caused any changes in organ weights outside the expected range for antisense oligonucleotides were excluded from further studies.

mouse Smad7 mRNA [2] = assay: Pharmacology: mouse Smad7 mRNA expression in liver, kidney, duodenum, ileum and colon after subcutaneous administration in CD-1 mice (Example 6); format: in vivo; details: 50 mg/kg subcutaneous twice weekly for 7 weeks, normalized to GAPDH
Method: as §1
The pharmacological activity of the Ionis oligonucleotides in mice was assessed by measuring mouse Smad7 mRNA expression in liver, kidney, duodenum, ileum, and colon at necropsy.
Tissue samples from all mice were analyzed for Smad7 mRNA expression using the primer probe set HTS7555 (forward sequence […], designated SEQ ID NO: 2737; reverse sequence […], designated SEQ ID NO: 2738; probe sequence […], designated SEQ ID NO: 2739), which was normalized to mRNA levels of the housekeeping gene, GAPDH. One-way ANOVA with Dunnet's comparison test was used for statistical analysis.

[3] = Plasma chemistry markers after subcutaneous administration in CD-1 mice (Example 6); format: in vivo; details: CD-1 mice plasma at day 46; 50 mg/kg subcutaneously twice a week for 7 weeks
Method: CD-1® mice (Charles River, Mass.) are a multipurpose mice model, frequently utilized for safety and efficacy testing. The mice were treated with Ionis human SMAD7 antisense oligonucleotides selected from studies described above and evaluated.
Groups of 8-9 week old male CD-1 mice were injected subcutaneously twice a week for 7 weeks with 50 mg/kg of Ionis oligonucleotides (100 mg/kg/week dose). Each group contained 4 mice. One group of male CD-1 mice was injected subcutaneously twice a week for 7 weeks with PBS. […]

[4] = Hematology assays after subcutaneous administration in CD-1 mice (Example 6); format: in vivo; set-up: RBC / Eosinophils / Monocytes: unit not given here; details: 50 mg/kg subcutaneous twice weekly for 7 weeks
Method: as §1
Blood obtained from all mouse groups was measured by an ADVIA2120i hematology analyzer (Siemens, USA) for measurements of the various blood cells, as well as other hematology markers.

human SMAD7 mRNA [5] = assay: Dose-dependent inhibition of human SMAD7 mRNA expression in Hep3B cells (Example 3, Study 1 and 2); format: cell-based; details: electroporation; for % inhibition of SMAD7 mRNA expression: approximately 16 hours
How it was run: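 Hep3B cells, 20,000 per well, electroporated with antisense oligonucleotide at 0.31, 1.25, 5.00 or 20.00 μM (first series) or 0.74, 2.22, 6.67 or 20.00 μM (second series). After ~16 h, SMAD7 mRNA measured by RT-qPCR (RTS5062), normalised to RIBOGREEN total RNA. Percent inhibition vs untreated cells; IC50 derived.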

human SMAD7 mRNA [6] = assay: Antisense inhibition of human SMAD7 mRNA expression in Hep3B cells by 3-10-3 cEt gapmers, 10,000 nM, electroporation (Example 2); format: cell-based; details: approximately 24 hours
How it was run: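 Hep3B cells (20,000/well) were electroporated with 10,000 nM 3-10-3 cEt gapmer (16-mer, phosphorothioate, 5-methylcytosines) and harvested after about 24 h. SMAD7 mRNA quantified by RT-qPCR with primer probe set RTS5062, normalized to total RNA by RiboGreen; percent inhibition relative to untreated cells.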

mouse Smad7 mRNA [7] = assay: Murine Smad7 mRNA expression after subcutaneous administration in BALB/c mice (Example 10); format: in vivo; details: 50 mg/kg subcutaneous once a week for 4 weeks, 24 hours after last dose
Method: The objective of this study was to evaluate the efficacy of Ionis SMAD7 antisense oligonucleotides compared to ION 736697/Mongersen in BALB/c mice following 4 weeks of treatment. Both ION 830025 and ION 798781 are cross-reactive with mouse Smad7 mRNA.
Groups of BALB/c mice were subcutaneously administered 50 mg/kg of Ionis SMAD7 oligonucleotides once a week for 4 weeks. Each group contained 4 mice. One group of mice was administered PBS once a week for 4 weeks. […]

[8] = Tissue and organ histopathology after oral gavage in CD-1 mice (Example 7); format: in vivo; details: daily oral gavage 500 mg/kg for one month, in words
Method: Groups of 7-8 week old male CD-1 mice were given an oral gavage dose once daily for 4 weeks of 500 mg/kg of Ionis SMAD7 oligonucleotides. Each group contained 8 mice. One group of male CD-1 mice was administered saline by oral gavage daily.
Histopathology evaluations were performed on the mice treated with Ionis oligonucleotides to evaluate any tissue damage in the liver (with gallbladder), kidneys, heart, spleen, thymus, mesenteric lymph nodes, and different parts of the GI tract, including duodenum, ileum, and colon (proximal and distal). Tissues were collected and fixed in 10% neutral-buffered formalin, embedded in paraffin, sectioned, and stained with hematoxylin and eosin. All the tissues were histologically unremarkable in all mice.

Substance | Organ weights, Kidneys [1] [g] | Organ weights, Liver [1] [g] | Organ weights, Spleen [1] [g] | ALT [3] [IU/L] | AST [3] [IU/L] | Albumin [3] [g/dL] | BUN [3] [mg/dL] | Eosinophils [4] | Hematocrit [4] [%] | Hemoglobin [4] [g/dL] | Lymphocytes [4] [%] | MCH [4] [pg] | MCHC [4] [g/dL] | MCV [4] [fL] | Monocytes [4] | Neutrophils [4] [%] | RBC [4] | Reticulocytes [4] [%] | WBC [4] | platelets [4] | further results
799144 (antisense kT*kT*kG*dG*dG*dT*dT*dA*dT*dG*dA*d[5mC]*dG*kG*kA*k[5mC]) [compound 799144] | 0.6 | 2.3 | 0.1 | 253 | 170 | 2.7 | 21 | 2.9 | 43.1 | 14.3 | 80.7 | 15.2 | 33.2 | 45.8 | 4.9 | 11.4 | 9.5 | 3.3 | 6.2 10^3/μL | 614.0 10^3/μL | % inhibition of Smad7 mRNA expression (compared to control), Kidney (mouse Smad7 mRNA [2]; kidney): 3%; % inhibition of Smad7 mRNA expression (compared to control), Liver (mouse Smad7 mRNA [2]; liver): 0%; Basophils ([4]; n.d. = below detection levels): 0.1 10^3/μL; % inhibition of SMAD7 mRNA expression (human SMAD7 mRNA [5]; 740 nM, Study 2, relative to untreated control cells): 32% and 40%; % inhibition of SMAD7 mRNA expression (human SMAD7 mRNA [5]; 2220 nM, Study 2): 50% and 57%; % inhibition of SMAD7 mRNA expression (human SMAD7 mRNA [5]; 6670.0 nM, Study 2): 67% and 60%; % inhibition of SMAD7 mRNA expression (human SMAD7 mRNA [5]; 20000.0 nM, Study 2): 83% and 87%; IC50 (human SMAD7 mRNA [5]; Study 2 (740-20000 nM)): 2000 nM and 1000 nM; % inhibition of SMAD7 mRNA expression (human SMAD7 mRNA [6]; Hep3B cells, electroporation with 10,000 nM antisense oligonucleotide, primer probe set RTS5062, relative to untreated control cells): 72%; % Inhibition (human SMAD7 mRNA [6]; SMAD7 mRNA, Hep3B cells, 10,000 nM antisense oligonucleotide, electroporation, primer probe set RTS5062, relative to untreated control cells): 72%
830027 (antisense kA*kA*k[5mC]*d[5mC]*dA*dT*dT*dT*dA*dT*d[5mC]*dT*dG*kG*kT*kG) [compound 830027] | 0.6 | 2.6 | 0.2 | 40 | 104 | 2.5 | 23 | 1.9 | 44.7 | 14.7 | 64.4 | 15.1 | 32.9 | 46.3 | 8.2 | 25.6 | 9.7 | 3.4 | 8.6 10^3/μL | 1141.8 10^3/μL | % Inhibition (human SMAD7 mRNA [6]; Hep3B cells, electroporation with 10,000 nM antisense oligonucleotide, SMAD7 mRNA by RT-PCR (RTS5062), relative to untreated control cells): 23%
ION 736697: uniform deoxy phosphorothioate oligonucleotide GTCGCCCCTTCTCCCCGCAGC (SEQ ID NO: 2736), same sequence and chemistry as GED-0301 (Mongersen) (DNA, all phosphorothioate, methylation of C not given here) [reference compound] |  |  |  |  |  |  |  |  |  |  |  |  |  |  |  |  |  |  |  |  | Mouse Smad7 mRNA expression (% inhibition), Colon (mouse Smad7 mRNA [7]): 3 % inhibition; Mouse Smad7 mRNA expression (% inhibition), Duodenum (mouse Smad7 mRNA [7]): 0 % inhibition; Mouse Smad7 mRNA expression (% inhibition), Ileum (mouse Smad7 mRNA [7]): 0 % inhibition; Mouse Smad7 mRNA expression (% inhibition), Kidney (mouse Smad7 mRNA [7]): 9 % inhibition; Mouse Smad7 mRNA expression (% inhibition), Liver (mouse Smad7 mRNA [7]): 6 % inhibition
ION 790615: 3-10-3 (S)-cEt gapmer targeting human SMAD7; top lead compound (k[5mC]*k[5mC]*kA*dA*dT*dG*dA*dG*dA*dA*dT*dG*d[5mC]*kT*kT*k[5mC]) |  |  |  |  |  |  |  |  |  |  |  |  |  |  |  |  |  |  |  |  | Mouse Smad7 mRNA expression (% inhibition), Colon (mouse Smad7 mRNA [7]): 71 % inhibition; Mouse Smad7 mRNA expression (% inhibition), Duodenum (mouse Smad7 mRNA [7]): 39 % inhibition; Mouse Smad7 mRNA expression (% inhibition), Ileum (mouse Smad7 mRNA [7]): 41 % inhibition; Mouse Smad7 mRNA expression (% inhibition), Kidney (mouse Smad7 mRNA [7]): 28 % inhibition; Mouse Smad7 mRNA expression (% inhibition), Liver (mouse Smad7 mRNA [7]): 47 % inhibition; Histopathology: oligonucleotide-related tissue alterations [8]: not associated with any antisense oligonucleotide-related tissue alterations
